Source: PMC10272112 (Nature Communications, 2023)
Where two headings read alike, the source gives them in different places.

What was measured:
Assay type in all cases: binding
HDAC10 = target: T1, HDAC10 (Homo sapiens, UniProt Q969S8); experiment: Chemoproteomic competition pulldown assay
T1 construct: host or cells: HeLa mono-clones, stably expressing
T1 sequence (Q969S8 1-669): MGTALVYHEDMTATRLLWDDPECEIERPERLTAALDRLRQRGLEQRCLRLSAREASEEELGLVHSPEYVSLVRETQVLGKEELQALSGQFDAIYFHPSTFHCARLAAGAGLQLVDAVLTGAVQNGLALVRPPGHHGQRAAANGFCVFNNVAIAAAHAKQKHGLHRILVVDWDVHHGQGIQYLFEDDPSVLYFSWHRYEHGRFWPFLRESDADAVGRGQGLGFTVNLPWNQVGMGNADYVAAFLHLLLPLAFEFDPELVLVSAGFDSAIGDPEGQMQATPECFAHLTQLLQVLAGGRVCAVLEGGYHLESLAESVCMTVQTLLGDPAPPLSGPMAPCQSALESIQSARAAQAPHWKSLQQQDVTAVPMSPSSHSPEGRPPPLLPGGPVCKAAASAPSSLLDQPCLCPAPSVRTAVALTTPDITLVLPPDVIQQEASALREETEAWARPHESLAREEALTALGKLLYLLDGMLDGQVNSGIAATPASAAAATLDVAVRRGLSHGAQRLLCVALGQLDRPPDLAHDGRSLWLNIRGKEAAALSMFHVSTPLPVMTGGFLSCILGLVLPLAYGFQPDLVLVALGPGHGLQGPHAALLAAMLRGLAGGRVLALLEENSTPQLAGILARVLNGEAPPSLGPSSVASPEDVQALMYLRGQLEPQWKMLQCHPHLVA
Protocol: (§1) To identify proteins directly bound by lipoic acid, we employed a chemoproteomic competition assay. Briefly, (R/S)-LA was immobilized on sepharose beads via an amidation reaction to form an affinity matrix (abbreviated as iL; Fig. 1a). This affinity matrix can be incubated with cell lysate to pull down potential LA or LM target proteins and identify these targets via bottom-up proteomics. In a competition assay, free LA or LM were incubated with lysate at different concentrations before pulling down and quantifying target proteins. […] (Fig. 1b, see “Methods” for details). […] The lysate buffer used in this assay contains 1 mM DTT to mimic the intracellular reductive milieu and to reduce lipoic acid and LM. […] Additional competition assays performed in lung adenocarcinoma cell A549 lysate also identified HDAC1, HDAC2, and HDAC6 as targets (Supplementary Fig. 1b). Amongst the three cell lines tested, HDACs were the only confidently identified targets across the 1500–3000 proteins quantified in these assays. […] We validated the results by analogous pulldown competition assays using two other affinity matrices prepared via the immobilization of either the HDAC inhibitor Quisinostat (iQ) and an analog of the class IIa HDAC inhibitor Bürli’s 31[14] (iC)[12]. We have previously shown that these affinity matrices specifically bind to the active sites of HDACs and have used them for HDACi selectivity profiling. Indeed, binding of (R/S)-LA and (R/S)-LM to HDAC1, HDAC2, HDAC3, HDAC6, and, to a lesser extent, HDAC8 was confirmed in these assays (Supplementary Fig. 1c, d). No binding to class IIa HDACs or the recently discovered common HDAC inhibitor off-target MBLAC2 was observed (Supplementary Fig. 1e)[12]. […] This observation might reflect electrostatic repulsion between the HDAC10 active site gate-keeper glutamic acid residues[15],[16] and the terminal carboxylic acid of LA.
(§2) To assess the degree of protein depletion from lysates by the affinity matrix, a second pulldown (PDPD) with fresh beads was performed using the unbound protein fraction from the vehicle control flow through. The beads were washed (1 × 1 mL of lysis buffer without inhibitors and only 0.4% Igepal, 2 × 2 mL of lysis buffer without inhibitors and only 0.2% Igepal), and captured proteins were denatured with 8 M urea buffer, alkylated with 55 mM chloroacetamide and digested with Trypsin according to standard procedures. The resulting peptides were desalted on a C18 filter plate (Sep-Pak® tC18 µElution Plate, Waters), vacuum dried, and stored at −20 °C until LC–MSMS measurement.
(§3) For the competition assays, relative binding was calculated based on the protein intensity ratio to the DMSO control for every single inhibitor concentration. EC50 values were derived from a four-parameter log-logistic regression with variable slope (constrain: bottom > 0). The obtained EC50 values were multiplied with a protein-dependent correction factor (cf), resulting in the apparent Kd value (Kd^app). The correction factor is determined by calculating the ratio of the protein intensity of two consecutive pulldowns of the vehicle control sample[13]. Targets of the inhibitors were annotated manually according to published procedures[12],[46],[47]. […] Additionally, the number of unique peptides and MSMS counts per condition were taken into account. Positive target binding across several independent experiments performed with different cell lysates further substantiated our confidence for a true positive drug-target binding event.

[1] = target: HDACs (HDAC1, HDAC2, HDAC6); experiment: Chemoproteomic competition pulldown assay (HDAC panel)
Protocol: as §1
as §2, with “The resulting peptides were desalted on a C18 filter plate (Sep-Pak® tC18 µElution Plate, Waters), vacuum dried, and stored at −20 °C until LC–MSMS measurement.” left out
For the competition assays, relative binding was calculated based on the protein intensity ratio to the DMSO control for every single inhibitor concentration. […] The correction factor is determined by calculating the ratio of the protein intensity of two consecutive pulldowns of the vehicle control sample[13]. […]

HDAC8 = target: T2, HDAC8 (Homo sapiens, UniProt Q9BY41); experiment: Chemoproteomic competition pulldown assay; set-up: endogenous in cells; host or cells: SW620 lysate; conditions: iQ; for Kd: SW620, read-out: pKdapp (converted); for relative binding vs DMSO: SW620 lysate
T2 sequence (Q9BY41 1-377): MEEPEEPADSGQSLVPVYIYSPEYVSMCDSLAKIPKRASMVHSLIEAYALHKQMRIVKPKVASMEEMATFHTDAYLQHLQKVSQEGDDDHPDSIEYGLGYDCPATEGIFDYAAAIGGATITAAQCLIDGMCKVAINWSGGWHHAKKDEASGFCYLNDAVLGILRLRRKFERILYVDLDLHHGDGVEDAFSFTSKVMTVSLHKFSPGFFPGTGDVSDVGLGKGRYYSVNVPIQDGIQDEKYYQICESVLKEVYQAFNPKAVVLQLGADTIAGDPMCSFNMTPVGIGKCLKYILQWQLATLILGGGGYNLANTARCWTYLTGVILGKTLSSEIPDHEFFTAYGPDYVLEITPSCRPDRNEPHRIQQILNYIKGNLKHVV
Protocol: as §1, §2, §3

[2] = iQ, SW620, read-out: pKdapp (converted)
[3] = iQ, SW620 lysate, log10 M -3.52288
[4] = iQ, SW620 lysate, log10 M -4.52288
[5] = iQ, SW620 lysate, log10 M -5.52288
[6] = iQ, SW620 lysate, log10 M -6.52288
[7] = iL, SW620 lysate, 1 mM DTT, range over HDAC1, HDAC2, HDAC6, read-out: affinities (Kd app)

Compound | HDAC10 binding in competition assays (HDAC10) | Kd (HDAC10; [2]) [µM] | relative binding vs DMSO (HDAC10; [3]) | relative binding vs DMSO (HDAC10; iQ, SW620 lysate, log10 M -4) | relative binding vs DMSO (HDAC10; [4]) | relative binding vs DMSO (HDAC10; iQ, SW620 lysate, log10 M -5) | relative binding vs DMSO (HDAC10; [5]) | relative binding vs DMSO (HDAC10; iQ, SW620 lysate, log10 M -6) | relative binding vs DMSO (HDAC10; [6]) | relative binding vs DMSO (HDAC10; iQ, SW620 lysate, log10 M -7) | Kd [1, 7] [µM] | Kd (HDAC8) [µM] | relative binding vs DMSO (HDAC8; log10 M -3.52288) | relative binding vs DMSO (HDAC8; log10 M -4) | relative binding vs DMSO (HDAC8; log10 M -4.52288) | relative binding vs DMSO (HDAC8; log10 M -5) | relative binding vs DMSO (HDAC8; log10 M -5.52288) | relative binding vs DMSO (HDAC8; log10 M -6) | relative binding vs DMSO (HDAC8; log10 M -6.52288) | relative binding vs DMSO (HDAC8; log10 M -7) | further results
O=C(O)CCCCC1CCSS1 (racemic) [(R/S)-LA, (R/S)-lipoic acid] | does not bind HDAC10 | > 316 | 0.8351 | 1.0789 | 0.7975 | 1.279 | 1.261 | 1.294 | 1.332 | 1.395 | 3 to 33 | 39.8 | 0.618 | 0.6642 | 1.003 | 1.048 | 1.024 | 1.06 | 0.9713 | 1.01 | EC50 ([1]; peer review response, read-out: EC50 in chemoproteomic competition assays): 5 to 30 µM; Kd ([1]; peer review response, read-out: potency of target binding (Kd)): 5 to 30 µM
NC(=O)CCCCC1CCSS1 (racemic) [(R/S)-LM, (R/S)-lipoamide] | binds HDAC10 with an even higher affinity than other HDACs | 3.16 | 0.03275 | 0.4253 | 0.3482 | 0.4143 | 0.681 | 0.6621 | 0.6582 | 0.9909 | 3 to 33 | 15.8 | 0.4707 | 0.4645 | 0.802 | 1.001 | 1.106 | 1.189 | 0.8797 | 0.9776 | relative binding vs DMSO (HDAC10; iL, MV4-11 lysate, log10 M -3.52288): 0.04424; relative binding vs DMSO (HDAC10; iL, MV4-11 lysate, log10 M -4): 0.1432; relative binding vs DMSO (HDAC10; iL, MV4-11 lysate, log10 M -4.52288): 0.2397; relative binding vs DMSO (HDAC10; iL, MV4-11 lysate, log10 M -5): 0.4705; relative binding vs DMSO (HDAC10; iL, MV4-11 lysate, log10 M -5.52288): 0.6761; relative binding vs DMSO (HDAC10; iL, MV4-11 lysate, log10 M -6): 0.5589; relative binding vs DMSO (HDAC10; iL, MV4-11 lysate, log10 M -6.52288): 0.7984; relative binding vs DMSO (HDAC10; iL, MV4-11 lysate, log10 M -7): 0.7331; Kd (HDAC10; iL, MV4-11 lysate, read-out: Kd app): 5 µM; Kd (HDAC10; iL, MV411, read-out: pKdapp (converted)): 3.16 µM
